Data: paper PMC9122897, “SHR1032, a novel STING agonist, stimulates anti-tumor immunity and directly induces AML apoptosis” (Scientific Reports, 2022)

Legend:
[1] = tested on: THP1 reporter cells carrying human STING R232, H232 and HAQ variants; assay: IRF luciferase reporter assay in THP1 cells with STING variants; type: cell-based; conditions: compared to cGAMP and ADU-S100; 24 h
Excerpt: Five haplotypes of human STING have been identified (R232, H232, HAQ, AQ, and Q alleles), which vary at amino acid positions 71, 230, 232, and 293[16]. R232, HAQ and H232 were reported to be the three major alleles. We tested the responsiveness of the human STING alleles to STING agonists in THP1 reporter cells carrying human STING R232, H232 and HAQ variants. […] To examine whether the activities of STING agonists are on-target, we treated THP1-STING-KO reporter cells with the agonists and no luciferase reporter activity was detected, confirming the cellular activity of STING agonists we observed are specific from STING.
Figure 2 SHR1032 specifically and potently activates STING signaling pathway. […] Cells were stimulated for 24 h with the indicated STING compounds and assessed for luciferase activity. […] IFNβ in media was quantified by human or mouse ELISA kits respectively. […] The amount of pTBK1, total TBK1, STING and α-tubulin was measured by western blotting.
THP1 reporter cells were treated for 24 h with a total of 100 k cells and 150 ul media in each well a 96-well plate. […] Luminescence signal was measured using Tecan infinite M1000. EC50 values were calculated using non-linear regression analysis of GraphPad Prism. Cell growth was monitored by CellTiter-Glo Luminescent Cell Viability Assay (Promega) per manufacture’s protocol. […]

[2] = tested on: THP1-STING-R232 cells; assay: IFNβ ELISA; type: cell-based, human; conditions: THP1-STING-R232, 5 h, vs ADU-S100
Procedure: Figure 2 SHR1032 specifically and potently activates STING signaling pathway. IRF luciferase reporter assays in (a) THP1-STING-R232, THP1-STING-H232, THP1-STING-HAQ, and THP1-STING-KO cells. Cells were stimulated for 24 h with the indicated STING compounds and assessed for luciferase activity. IFNβ production and activation of cGAS-STING signaling pathway in (b) human THP1-STING-R232, human PBMCs from a donor homozygous for the R232 variant, cynomolgus PBMC, and mouse RAW164.7 macrophage cells were treated with STING agonists for 5 h. IFNβ in media was quantified by human or mouse ELISA kits respectively. (c) THP1-STING-R232 cells and mouse RAW164.7 macrophage cells were stimulated with 40 µM of ADU-S100 or 10 µM of SHR1032 for the indicated time points. The amount of pTBK1, total TBK1, STING and α-tubulin was measured by western blotting.
Human and Cynomolgous PBMC’s were thawed and spun down in Lymphocyte media (ZENBIO) and resuspended in media to 1.5 x 10^6 cells/ml density. […] Human and monkey IFN-β protein concentration was measured using human IFN-β Quantikine ELISA Kits (R&D Systems) per manufacture’s protocol. Mouse IFN-β was measured using mouse IFN-β Quantikine ELISA Kits (R&D Systems) per manufacture’s protocol. Mouse TNFα, IFN-β and IL-6 in the tumor lysates and plasma was measured by Quantikine ELISA Kits (R&D Systems) per manufacture’s protocol.

[3] = tested on: MOLM-16 cells; assay: Annexin V staining by flow cytometry; type: cell-based, human; conditions: MOLM-16, 16 h; compared to cytarabine
Procedure: (§1) Figure 5 Cell apoptosis induced by SHR1032 in AML cell lines is independent of type I interferon. (a–d) RNA-Seq analysis of THP1-STING-R232, THP1-STING-KO and MV4-11 AML cells treated with 1 µM of SHR1032 for 4 h. […] (d) ANNEXIN V staining analysis with flow cytometry in MV4-11, MOLM-16, THP1-STING-WT and THP1-STING-KO cells. (e) Cell viability analysis by CellTiter Glo in THP1-IRFAR2-WT or -KO cells.
(§2) Cells were incubated with compounds or DMSO for 16 h in a 6-well plate (0.5 × 10^6 cells/well in 2 ml of media). After incubation, cells were collected and washed once in stain buffer (BD Biosciences). Samples were stained with FITC_Annexin V (BioLegend) for 15 min at room temperature. Then the cells were washed twice and resuspended in 200 µl stain buffer, and analyzed with Guava EasyCyte (Millipore).

[4] = tested on: MV4-11 cells; assay: Annexin V staining by flow cytometry; type: cell-based, human; conditions: MV4-11, 16 h; compared to cytarabine
Procedure: as §1, §2

[5] = tested on: THP1-STING-KO cells; assay: Annexin V staining by flow cytometry; type: cell-based, human; conditions: 16 h
Procedure: as §1, §2

[6] = tested on: THP1-STING-WT cells; assay: Annexin V staining by flow cytometry; type: cell-based, human; conditions: 16 h, compared to cytarabine
Procedure: as §1, §2

[7] = tested on: MOLM-16 cells; assay: Western blot of TBK1 and STING phosphorylation; type: cell-based, human; conditions: MOLM-16, 1 µM
Procedure: (§3) (a–d) AML cells were treated with STING agonists and standard of care cytarabine, and cell viability was measured by CellTiter Glo in (a) THP1-STING-R232, (b) THP1-STING-KO, (c) MV-4-11 and (d) MOLM-16. (e) MV-4-11, MOLM-16 and THP1-STING-KO cells were stimulated with 1 µM of SHR1032 for the indicated time points. The amount of pTBK1, total TBK1, pSTING, total STING and α-tubulin was measured by Western blot. pSTING phosphorylated STING. THP1 reporter cells were treated for 24 h with a total of 100 k cells and 150 ul media in each well a 96-well plate. Following the incubation, 20 µl of supernatant was transferred to an opaque 96 well ½ area plate and incubated for 30 s with 50 µl of QUANTI-Luc substrate (InvivoGen) per manufacturer’s instructions. Luminescence signal was measured using Tecan infinite M1000. EC50 values were calculated using non-linear regression analysis of GraphPad Prism. Cell growth was monitored by CellTiter-Glo Luminescent Cell Viability Assay (Promega) per manufacture’s protocol. GI50 values were calculated using non-linear regression analysis of GraphPad Prism. Cell lysates for western blotting were made in RIPA buffer (Sigma) with Halt Protease and Phosphatase Inhibitors (Thermo Scientific). Antibodies against pSTING, TBK1, pTBK1 and tubulin were purchased from Cell Signaling Technologies, and anti-STING was purchased from Protein Tech.

[8] = tested on: MV4-11 cells; assay: Western blot of TBK1 and STING phosphorylation; type: cell-based, human; conditions: MV4-11, 1 µM
Procedure: as §3

[9] = tested on: THP1-STING-KO cells; assay: Western blot of TBK1 and STING phosphorylation; type: cell-based, human; conditions: 1 µM
Procedure: as §3

With `CCn1nc(C)cc1C(=O)Nc1nc2cc(C(N)=O)cc(OC)c2n1CCC[C@H]1COc2cc(C(N)=O)cc3nc(NC(=O)c4cc(C)nn4CC)n1c23` [SHR1032] the “potency in IRF luciferase reporter” value [1] was “much better potency”, the IFNβ induction [2] was “much higher level of IFNβ” and the “apoptosis (Annexin V)” value [3] was “much higher level of apoptosis”. The “apoptosis (Annexin V)” value [4] was “much higher level of apoptosis”, the “apoptosis (Annexin V)” value [5] was “no effect” and the “apoptosis (Annexin V)” value [6] was “comparable level of apoptosis”. The “TBK1 and STING phosphorylation” value [7] was “induced TBK1 and STING phosphorylation”, the “TBK1 and STING phosphorylation” value [8] was “induced TBK1 and STING phosphorylation” and the “TBK1 and STING phosphorylation” value [9] was “not in THP1-STING-KO cells”.
